The values below come from ChEMBL document CHEMBL5126551, “Spiral molecules with antimalarial activities: A review” (Eur J Med Chem, 2022).

Converted amounts (≈) assume the structure as drawn.

As a reminder, the IC50 is the concentration that gives 50% inhibition.

One data set relates to Plasmodium berghei. Briefly: Antiplasmodial activity against luciferase expressing hepatic stage Plasmodium berghei sporozoites infected in human Huh-7 cells assessed as inhibition of parasite infection preincubated with cells for 1 hrs followed by parasite infection and measured after 48 hrs by bioluminescence assay. The data set is classed as functional, organism-based.

Data set [1] deals with Plasmodium falciparum. The data set is described as follows: Antimalarial activity against Plasmodium falciparum K1 assessed as inhibition of parasite growth incubated for 72 hrs by DAPI-staining based microscopic analysis. The data set is classed as functional, organism-based. The following applies: K1, 72 h.
The subject of data set [2] is Plasmodium falciparum. Briefly: Antimalarial activity against Plasmodium falciparum NF54 assessed as inhibition of parasite growth incubated for 72 hrs by DAPI-staining based microscopic analysis. The format is functional, organism-based. The following applies: NF54, 72 h.
Data set [3] has as its system Plasmodium falciparum. The data set is described as follows: Antimalarial activity against chloroquine and quinine sensitive Plasmodium falciparum assessed as inhibition of parasite growth. The format is functional, organism-based.
Data set [4] relates to Plasmodium falciparum. The data set is described as follows: Antimalarial activity against Plasmodium falciparum Cam3.I^R539T assessed as reduction in parasite survival at 700 nM measured after 6 hrs relative to control. The format is functional.
The subject of data set [5] is Plasmodium falciparum. The data set is described as follows: Antimalarial activity against Plasmodium falciparum Cam3.I^R539T assessed as reduction in parasite survival at 350 nM measured after 6 hrs relative to control. The data set is classed as functional.
In data set [6] the test system is Plasmodium falciparum. The data set is described as follows: Antimalarial activity against Plasmodium falciparum Cam3.I^R539T assessed as reduction in parasite survival at 88 nM measured after 6 hrs relative to control. The format is functional.
Data set [7] relates to Plasmodium falciparum. Briefly: Antimalarial activity against Plasmodium falciparum Cam3.I^R539T assessed as reduction in parasite survival at 49 nM measured after 6 hrs relative to control. The format is functional.
Data set [8] has as its system Plasmodium falciparum. Briefly: Antimalarial activity against Plasmodium falciparum Cam3.I^R539T assessed as reduction in parasite survival at 175 nM measured after 6 hrs relative to control. The format is functional.
The test system of data set [9] is Plasmodium falciparum. Briefly: Antimalarial activity against chloroquine-sensitive Plasmodium falciparum 3D7 infected in human erythrocytes assessed as inhibition of parasite growth incubated for 48 hrs by parasite lactate dehydrogenase based colorimetric assay. The format is functional, organism-based. The following applies: 3D7, 48 h.
Data set [10] concerns Plasmodium falciparum. Briefly: Antimalarial activity against chloroquine-resistant Plasmodium falciparum FCR3 infected in human erythrocytes assessed as inhibition of parasite growth incubated for 48 hrs by [3H]-hypoxanthine incorporation assay. The data set is classed as functional, organism-based.
Data set [11] deals with Plasmodium falciparum. The data set is described as follows: Antimalarial activity against Plasmodium falciparum 3D7 infected in human plasma assessed as inhibition of parasite growth by Giema staining based assay. The following applies: 3D7, Plasma. The format is functional, organism-based.
The subject of data set [12] is Plasmodium falciparum. The data set is described as follows: Antimalarial activity against chloroquine and antifolate resistant Plasmodium falciparum K1 infected in human erythrocyte preincubated for 24 hrs followed by hypoxanthine addition and measured after 18 to 20 hrs by [3H]-hypoxanthine incorporation assay. The format is functional, organism-based.
Data set [13] concerns Plasmodium falciparum. Briefly: Antimalarial activity against chloroquine-resistant Plasmodium falciparum K14 infected in human red blood cells assessed as inhibition of parasite growth incubated for 42 hrs by [3H]-hypoxanthine incorporation assay. The following applies: K14, Erythrocyte. The format is functional, organism-based, Red blood cell.
Data set [14] deals with Plasmodium falciparum. Briefly: Antimalarial activity against chloroquine resistant Plasmodium falciparum K1 assessed as inhibition of parasite growth by [3H]-hypoxanthine incorporation assay. The format is functional, organism-based.
Data set [15] has as its system Plasmodium falciparum. The data set is described as follows: Antimalarial activity against chloroquine sensitive Plasmodium falciparum NF54 assessed as inhibition of parasite growth by [3H]-hypoxanthine incorporation assay. The format is functional, organism-based.
For data set [16], the system named is Plasmodium falciparum. Briefly: Antimalarial activity against chloroquine-resistant Plasmodium falciparum K1 infected in human erythrocytes incubated for 72 hrs by parasite lactate dehydrogenase assay. The data set is classed as functional, organism-based. The following applies: K1, Erythrocyte.
Data set [17] can be described thus: Cytotoxicity against human MRC5 cells assessed as inhibition of cell growth incubated for 7 days by MTT assay. The format is toxicity, cell-based.

As for `CC(C)(C)OC(=O)C1C(c2ccccc2)(c2ccccc2)C12C(=O)N1[C@@H](C(=O)OC(c3ccccc3)c3ccccc3)C(C)(C)S[C@@H]12` (some centres not stated), in the data set on Plasmodium berghei, the concentration for half-maximal inhibition (IC50) came to 2.67 µM.

`C=CCOc1c2n(c3ccccc13)C=CC[C@@]21C(=O)c2ccccc2N1CC=C`: the IC50 in the data set with Plasmodium falciparum [1] and in the data set with Plasmodium falciparum [2] was not below 5 µM throughout.

Turning to `CC(C)OC(=O)C1=C2N=C(c3cccnc3)NN2C2=C(C(=O)CCC2)C12C(=O)Nc1ccc(F)cc12` (configuration not stated), the IC50 in the data set with Plasmodium falciparum [3] came out at 0.454 µM.

Turning to `CC1(C)CC(O)(Cc2ccc(C3CCC4(CC3)OOC3(O4)C4CC5CC(C4)CC3C5)cc2)CC(C)(C)N1` (configuration not stated), the Activity is recorded as 0% in the data set on Plasmodium falciparum [4]; 0% with Plasmodium falciparum [5]; 0.17% in the data set with Plasmodium falciparum [6]; 1.29% in the data set with Plasmodium falciparum [7]; 0.12% in the data set on Plasmodium falciparum [8].

For the molecule `COc1cc([C@@H]2c3cc(Br)ccc3NC3(C(=O)Nc4ccccc43)[C@H]2C)ccc1O` (some centres not stated), the IC50 came out at 1.31 µM in the data set with Plasmodium falciparum [9] and 1.52 µM with Plasmodium falciparum [10].

`CCOC(=O)C1=C2N=C(c3cccnc3)NN2C2=C(C(=O)CCC2)C12C(=O)Nc1ccccc12` (configuration not stated): in the data set on Plasmodium falciparum [3], the IC50 was found to be 0.422 µM.

`CC1=CC(=O)CC(C)(C)[C@@]12C=C[C@H](C)O2`: in the data set with Plasmodium falciparum [11], the IC50 was 0.027 µM.

In the data set on Plasmodium falciparum [12], `C=CCN1C(=O)[C@@]2(c3ccccc31)C(c1ccccc1)C=CN1N3C=CC=CC3C(=O)[C@@]12C/C=C/c1ccccc1` (some centres not stated) displayed a 50% inhibitory concentration (IC50) of 8.3 µM.

As to `C=CCN1C(=O)[C@]2(CC=CN3c4ccccc4C(=O)[C@@]32CC=C)c2ccccc21`, the IC50 in the data set with Plasmodium falciparum [12] turned out to be 9.3 µM.

Regarding `O=C1OC[C@H](CN2C3=C4C(=O)c5ccccc5C4C[C@@H]4CO[C@@]3(O4)c3ccccc32)O1` (some centres not stated), the IC50 with Plasmodium falciparum [1] and in the data set with Plasmodium falciparum [2] was 0.009 µM each time.

Regarding `CC(=O)O[C@@H]1[C@H](C)[C@@H](C)O[C@@]2([C@@H]1C)[C@@H](C)C=C(C)C(=O)[C@@H]2C`, the IC50 in the data set on Plasmodium falciparum [11] worked out at 16 µM.

In the case of `c1cc(C2CCC3(CC2)OOC2(O3)C3CC4CC(C3)CC2C4)ccc1OCCC1CCNCC1` (configuration not stated), the Activity with Plasmodium falciparum [4] was determined as 0%; with Plasmodium falciparum [5], 0%; in the data set on Plasmodium falciparum [6] it was 0%; with Plasmodium falciparum [7], 0.76%; with Plasmodium falciparum [8], 0%.

Turning to `CCN(CC)c1ccc(N2C(=O)C(Oc3ccccc3)C23c2ccccc2-c2ccccc23)cc1` (configuration not stated), in the data set with Plasmodium falciparum [13], the IC50 worked out at 6.4 µM.

With `CCOC(=O)C1=C2N=C(c3cccnc3)NN2C2=C(C(=O)CCC2)C12C(=O)Nc1ccc(F)cc12` (configuration not stated), the IC50 in the data set on Plasmodium falciparum [3] stood at 0.122 µM.

On to `NCC1CCC2(CC1)OOC1(O2)C2CC3CC(C2)CC1C3` (configuration not stated), for which the concentration for half-maximal inhibition (IC50) in the data set on Plasmodium falciparum [14] came to 0.39 ng/mL (≈ 1.33 nM); in the data set with Plasmodium falciparum [15], 0.42 ng/mL (≈ 1.43 nM).

For `CC(C)(N)CNC(=O)CC1CCC2(CC1)OOC1(O2)C2CC3CC(C2)CC1C3` (configuration not stated), the IC50 in the data set on Plasmodium falciparum [14] was 0.57 ng/mL (≈ 1.45 nM); in the data set with Plasmodium falciparum [15] it was 0.54 ng/mL (≈ 1.38 nM).

In turn, `COc1cc2c(cc1O)CCN1CC=C3C=C[C@H](OC)C[C@]321` [ERYSODINE] yielded an IC50 in the data set on Plasmodium falciparum [16] of 6.5 µM. Further, the 50% inhibitory concentration (IC50) at 7 days in data set [17] is more than 64 µM.

For the molecule `COc1cc2c(cc1OC)[C@]13C[C@@H](OC)C=CC1=CCN3CC2` [ERYSOTRINE], the concentration for half-maximal inhibition (IC50) with Plasmodium falciparum [16] amounted to 20.6 µM. Further, the IC50 at 7 days in data set [17] was more than 64 µM.

In the data set on Plasmodium falciparum [16], `COc1cc2c(cc1O)[C@]13C[C@@H](OC)C=CC1=CCN3CC2` [ERYSOVINE] displayed a half-inhibitory concentration (IC50) of 4.1 µM. Moreover, the IC50 at 7 days in data set [17] is more than 64 µM.

Regarding `CO[C@H]1C=CC2=CCN3CCc4cc5c(cc4[C@]23C1)OCO5` [ERYTHRALINE], the midpoint of inhibition in the data set with Plasmodium falciparum [16], the IC50, lay at 7.3 µM. Moreover, the IC50 at 7 days in data set [17] was more than 64 µM.
